Reference: ChEMBL document CHEMBL5352478, “Novel pyridine-containing histone deacetylase inhibitors strongly arrest proliferation, induce apoptosis and modulate miRNAs in cancer cells” (Eur J Med Chem, 2023)

molecular target: Histone deacetylase 4 (Homo sapiens, UniProt P56524); assay: not given; details: read-out: IC50
Sequence (P56524 whole entry): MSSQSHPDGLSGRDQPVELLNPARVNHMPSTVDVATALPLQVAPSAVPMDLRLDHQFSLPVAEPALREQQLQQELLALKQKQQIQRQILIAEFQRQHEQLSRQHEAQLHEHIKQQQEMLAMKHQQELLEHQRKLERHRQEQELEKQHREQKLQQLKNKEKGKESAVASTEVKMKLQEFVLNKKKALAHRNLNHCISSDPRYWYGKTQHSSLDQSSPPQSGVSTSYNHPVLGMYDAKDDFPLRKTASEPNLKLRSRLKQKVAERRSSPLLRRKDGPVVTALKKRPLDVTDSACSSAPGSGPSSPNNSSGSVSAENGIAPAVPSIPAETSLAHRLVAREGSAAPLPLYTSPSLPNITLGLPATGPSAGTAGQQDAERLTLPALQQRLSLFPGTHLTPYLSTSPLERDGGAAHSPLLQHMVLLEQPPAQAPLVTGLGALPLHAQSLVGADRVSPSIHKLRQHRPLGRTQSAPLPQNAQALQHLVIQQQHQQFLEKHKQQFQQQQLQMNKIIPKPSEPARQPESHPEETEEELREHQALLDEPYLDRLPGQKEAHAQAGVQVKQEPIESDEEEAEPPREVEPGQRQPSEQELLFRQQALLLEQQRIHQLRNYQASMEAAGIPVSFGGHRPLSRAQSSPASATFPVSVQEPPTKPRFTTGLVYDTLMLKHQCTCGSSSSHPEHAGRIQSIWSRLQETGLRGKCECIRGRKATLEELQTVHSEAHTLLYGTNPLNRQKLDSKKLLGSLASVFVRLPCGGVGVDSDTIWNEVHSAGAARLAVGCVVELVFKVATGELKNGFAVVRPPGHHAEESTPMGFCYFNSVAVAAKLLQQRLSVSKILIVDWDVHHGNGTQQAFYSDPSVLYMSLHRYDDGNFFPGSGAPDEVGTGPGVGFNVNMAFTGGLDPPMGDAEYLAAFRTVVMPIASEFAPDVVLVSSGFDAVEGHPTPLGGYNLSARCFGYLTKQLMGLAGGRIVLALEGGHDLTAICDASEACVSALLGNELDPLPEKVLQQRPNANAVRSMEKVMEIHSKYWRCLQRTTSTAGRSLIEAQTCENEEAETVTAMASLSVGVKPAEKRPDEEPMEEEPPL

Going from O=C(Cc1ccccc1)Nc1ccc(C(=O)NO)nc1 to O=C(/C=C/c1ccc(NC(=O)Cc2ccccc2)cn1)NO, the IC50 falls from 82.4 µM to 19.3 µM (4.3-fold). The second is the more potent here.

Compared with O=C(Cc1cccc2ccccc12)Nc1ccc(C(=O)NO)nc1, O=C(Cc1ccc2ccccc2c1)Nc1ccc(C(=O)NO)nc1 is 1.9-fold lower in IC50: 30.7 µM for the first, 15.8 µM for the second.

CC(C)C(C(=O)Nc1ccc(/C=C/C(=O)NO)nc1)c1ccccc1 (stereo not given) and CCC(C(=O)Nc1ccc(/C=C/C(=O)NO)nc1)c1ccccc1 (stereo not given) are within 1.5-fold of each other in IC50: 16 µM for the first, 17.1 µM for the second.

First: O=C(/C=C/c1ccc(NC(=O)Cc2ccc3ccccc3c2)cn1)NO
Second: O=C(NO)c1ccc(NC(=O)C(Cc2ccccc2)c2ccccc2)cn1 (stereo not given)
The IC50 of the first is 2.2-fold lower: 17.6 µM for the first, 39.2 µM for the second. The first is the more potent here.

CCC(C(=O)Nc1ccc(C(=O)NO)nc1)c1ccccc1 (stereo not given) and CC(C)C(C(=O)Nc1ccc(C(=O)NO)nc1)c1ccccc1 (stereo not given) are within 1.5-fold of each other in IC50: 77.9 µM for the first, 63.2 µM for the second.

tested on: HCT-116; assay: cells; format: functional, cell-based; details: Homo sapiens, HCT-116, 72 h

Compared with CC(C)C(C(=O)Nc1ccc(/C=C/C(=O)NO)nc1)c1ccccc1 (stereo not given), CC(C)C(C(=O)Nc1ccc(C(=O)NO)nc1)c1ccccc1 (stereo not given) is 5-fold higher in IC50: 260 nM for the first, 1310 nM for the second. The first is the more potent here.

Compared with O=C(/C=C/c1ccc(NC(=O)Cc2ccc3ccccc3c2)cn1)NO, O=C(/C=C/c1ccc(NC(=O)Cc2ccccc2)cn1)NO is 4.2-fold higher in IC50: 210 nM for the first, 880 nM for the second. The first is the more potent here.

First: O=C(NO)c1ccc(NC(=O)C(Cc2ccccc2)c2ccccc2)cn1 (stereo not given)
Second: CCC(C(=O)Nc1ccc(C(=O)NO)nc1)c1ccccc1 (stereo not given)
The IC50 of the first is 1.6-fold lower: 1050 nM for the first, 1680 nM for the second.

tested on: A549; assay: cells; format: functional, cell-based; details: Homo sapiens, A549, 72 h

Going from CC(C)C(C(=O)Nc1ccc(/C=C/C(=O)NO)nc1)c1ccccc1 (stereo not given) to CC(C)C(C(=O)Nc1ccc(C(=O)NO)nc1)c1ccccc1 (stereo not given), the IC50 rises from 590 nM to 3750 nM (6.4-fold).

First: O=C(/C=C/c1ccc(NC(=O)Cc2ccc3ccccc3c2)cn1)NO
Second: O=C(/C=C/c1ccc(NC(=O)Cc2ccccc2)cn1)NO
The IC50 of the first is 5-fold lower: 600 nM for the first, 2980 nM for the second.

Going from O=C(NO)c1ccc(NC(=O)C(Cc2ccccc2)c2ccccc2)cn1 (stereo not given) to CCC(C(=O)Nc1ccc(C(=O)NO)nc1)c1ccccc1 (stereo not given), the IC50 rises from 2660 nM to 5470 nM (2.1-fold).

tested on: K562; assay: cells; format: functional, cell-based; details: Homo sapiens, K562, 72 h

Going from CC(C)C(C(=O)Nc1ccc(/C=C/C(=O)NO)nc1)c1ccccc1 (stereo not given) to CC(C)C(C(=O)Nc1ccc(C(=O)NO)nc1)c1ccccc1 (stereo not given), the IC50 rises from 180 nM to 1040 nM (5.8-fold).

First: O=C(/C=C/c1ccc(NC(=O)Cc2ccc3ccccc3c2)cn1)NO
Second: O=C(/C=C/c1ccc(NC(=O)Cc2ccccc2)cn1)NO
The IC50 of the first is 7-fold lower: 130 nM for the first, 910 nM for the second.

First: O=C(NO)c1ccc(NC(=O)C(Cc2ccccc2)c2ccccc2)cn1 (stereo not given)
Second: CCC(C(=O)Nc1ccc(C(=O)NO)nc1)c1ccccc1 (stereo not given)
The IC50 of the first is 3.6-fold lower: 490 nM for the first, 1780 nM for the second.

tested on: U-937; assay: Induction of cell cycle arrest in human U-937 cells assessed as accumulation of cells in pre-G1 phase at 5 uM for 24 hrs by PI staining based flow cytometric analysis; format: functional; details: not given

Work on O=C(CCCCCCC(=O)Nc1ccccc1)NO [VORINOSTAT] yielded an Activity of 10%.

molecular target: T1, Protein deacetylase HDAC6 (Homo sapiens, UniProt Q9UBN7); assay: not given; details: read-out: IC50
T1 sequence (Q9UBN7 whole entry): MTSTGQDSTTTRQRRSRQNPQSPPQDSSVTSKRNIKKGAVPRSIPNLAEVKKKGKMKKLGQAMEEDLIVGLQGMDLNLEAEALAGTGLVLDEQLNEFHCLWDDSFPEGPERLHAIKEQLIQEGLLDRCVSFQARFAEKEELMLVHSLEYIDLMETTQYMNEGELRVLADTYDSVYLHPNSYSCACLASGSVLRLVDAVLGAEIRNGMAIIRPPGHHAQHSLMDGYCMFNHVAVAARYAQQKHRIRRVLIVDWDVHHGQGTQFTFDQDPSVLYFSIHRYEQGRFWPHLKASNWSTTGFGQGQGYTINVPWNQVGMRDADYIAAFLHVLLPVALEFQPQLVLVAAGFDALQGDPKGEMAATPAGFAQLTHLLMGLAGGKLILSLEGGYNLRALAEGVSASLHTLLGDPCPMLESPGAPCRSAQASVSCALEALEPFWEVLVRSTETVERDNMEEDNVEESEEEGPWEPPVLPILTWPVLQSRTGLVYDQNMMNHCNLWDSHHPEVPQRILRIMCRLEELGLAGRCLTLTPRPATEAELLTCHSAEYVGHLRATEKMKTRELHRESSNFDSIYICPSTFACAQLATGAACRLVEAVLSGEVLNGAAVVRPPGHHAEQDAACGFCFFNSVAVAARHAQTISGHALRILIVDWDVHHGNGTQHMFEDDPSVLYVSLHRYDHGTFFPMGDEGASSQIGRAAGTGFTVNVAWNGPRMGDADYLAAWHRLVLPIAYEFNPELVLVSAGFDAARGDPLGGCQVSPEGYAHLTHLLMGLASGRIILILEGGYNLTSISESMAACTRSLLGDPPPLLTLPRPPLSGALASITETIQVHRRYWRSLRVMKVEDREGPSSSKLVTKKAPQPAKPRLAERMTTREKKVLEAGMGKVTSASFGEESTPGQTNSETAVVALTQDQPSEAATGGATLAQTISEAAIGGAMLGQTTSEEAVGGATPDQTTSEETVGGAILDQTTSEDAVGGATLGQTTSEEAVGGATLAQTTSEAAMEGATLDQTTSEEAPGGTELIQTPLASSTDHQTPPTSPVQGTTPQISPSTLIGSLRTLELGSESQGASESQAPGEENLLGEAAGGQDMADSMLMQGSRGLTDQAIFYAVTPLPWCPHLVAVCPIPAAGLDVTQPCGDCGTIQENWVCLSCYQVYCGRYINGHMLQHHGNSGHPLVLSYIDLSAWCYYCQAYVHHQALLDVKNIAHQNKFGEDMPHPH

Compared with O=C(Cc1ccccc1)Nc1ccc(C(=O)NO)nc1, O=C(/C=C/c1ccc(NC(=O)Cc2ccccc2)cn1)NO is 13-fold lower in IC50: 174 nM for the first, 13 nM for the second. The second is the more potent here.

Going from O=C(Cc1cccc2ccccc12)Nc1ccc(C(=O)NO)nc1 to O=C(Cc1ccc2ccccc2c1)Nc1ccc(C(=O)NO)nc1, the IC50 rises from 58 nM to 123 nM (2.1-fold).

CC(C)C(C(=O)Nc1ccc(/C=C/C(=O)NO)nc1)c1ccccc1 (stereo not given) and CCC(C(=O)Nc1ccc(/C=C/C(=O)NO)nc1)c1ccccc1 (stereo not given) are within 1.5-fold of each other in IC50: 10 nM for the first, 11 nM for the second.

First: O=C(/C=C/c1ccc(NC(=O)Cc2ccc3ccccc3c2)cn1)NO
Second: O=C(NO)c1ccc(NC(=O)C(Cc2ccccc2)c2ccccc2)cn1 (stereo not given)
The IC50 of the first is 7-fold higher: 112 nM for the first, 16 nM for the second.

CCC(C(=O)Nc1ccc(C(=O)NO)nc1)c1ccccc1 (stereo not given) and CC(C)C(C(=O)Nc1ccc(C(=O)NO)nc1)c1ccccc1 (stereo not given) are within 1.5-fold of each other in IC50: 51 nM for the first, 41 nM for the second.

molecular target: T2, Histone deacetylase 8 (Homo sapiens, UniProt Q9BY41); assay: not given; details: not given
T2 sequence (Q9BY41 whole entry): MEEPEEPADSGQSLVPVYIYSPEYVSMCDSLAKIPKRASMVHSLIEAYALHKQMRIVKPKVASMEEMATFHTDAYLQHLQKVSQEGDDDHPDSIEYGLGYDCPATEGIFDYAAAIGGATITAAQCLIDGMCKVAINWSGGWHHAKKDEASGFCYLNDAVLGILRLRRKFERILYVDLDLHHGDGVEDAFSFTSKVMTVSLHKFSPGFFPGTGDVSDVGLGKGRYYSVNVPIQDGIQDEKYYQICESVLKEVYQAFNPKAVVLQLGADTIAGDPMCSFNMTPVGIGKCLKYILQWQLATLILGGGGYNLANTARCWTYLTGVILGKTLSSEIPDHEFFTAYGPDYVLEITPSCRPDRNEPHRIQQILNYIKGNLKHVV

First: O=C(Cc1ccccc1)Nc1ccc(C(=O)NO)nc1
Second: O=C(/C=C/c1ccc(NC(=O)Cc2ccccc2)cn1)NO
The IC50 of the first is 6-fold higher: 1090 nM for the first, 183 nM for the second.

Compared with O=C(Cc1cccc2ccccc12)Nc1ccc(C(=O)NO)nc1, O=C(Cc1ccc2ccccc2c1)Nc1ccc(C(=O)NO)nc1 is 1.9-fold lower in IC50: 1810 nM for the first, 976 nM for the second. The second is the more potent here.

Going from CC(C)C(C(=O)Nc1ccc(/C=C/C(=O)NO)nc1)c1ccccc1 (stereo not given) to CCC(C(=O)Nc1ccc(/C=C/C(=O)NO)nc1)c1ccccc1 (stereo not given), the IC50 falls from 168 nM to 104 nM (1.6-fold).

O=C(/C=C/c1ccc(NC(=O)Cc2ccc3ccccc3c2)cn1)NO and O=C(NO)c1ccc(NC(=O)C(Cc2ccccc2)c2ccccc2)cn1 (stereo not given) are within 1.5-fold of each other in IC50: 1010 nM for the first, 1090 nM for the second.

CCC(C(=O)Nc1ccc(C(=O)NO)nc1)c1ccccc1 (stereo not given) and CC(C)C(C(=O)Nc1ccc(C(=O)NO)nc1)c1ccccc1 (stereo not given) are within 1.5-fold of each other in IC50: 964 nM for the first, 882 nM for the second.

molecular target: Histone deacetylase 3 (Homo sapiens, UniProt O15379); assay: not given; details: not given
Sequence (O15379 whole entry): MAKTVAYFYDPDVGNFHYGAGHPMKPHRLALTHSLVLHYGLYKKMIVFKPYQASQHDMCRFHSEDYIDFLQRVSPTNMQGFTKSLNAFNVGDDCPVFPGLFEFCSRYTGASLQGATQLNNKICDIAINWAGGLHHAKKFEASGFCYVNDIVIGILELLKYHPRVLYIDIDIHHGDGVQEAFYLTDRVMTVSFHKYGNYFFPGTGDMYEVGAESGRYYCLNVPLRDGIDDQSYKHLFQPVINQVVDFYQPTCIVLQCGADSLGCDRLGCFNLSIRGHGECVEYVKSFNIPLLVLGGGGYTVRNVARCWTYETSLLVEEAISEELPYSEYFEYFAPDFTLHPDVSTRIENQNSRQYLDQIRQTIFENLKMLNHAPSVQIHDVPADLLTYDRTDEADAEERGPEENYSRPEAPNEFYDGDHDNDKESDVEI

Going from O=C(Cc1ccccc1)Nc1ccc(C(=O)NO)nc1 to O=C(/C=C/c1ccc(NC(=O)Cc2ccccc2)cn1)NO, the IC50 falls from 2060 nM to 78 nM (26-fold).

Compared with O=C(Cc1cccc2ccccc12)Nc1ccc(C(=O)NO)nc1, O=C(Cc1ccc2ccccc2c1)Nc1ccc(C(=O)NO)nc1 is 6.7-fold lower in IC50: 1390 nM for the first, 207 nM for the second.

CC(C)C(C(=O)Nc1ccc(/C=C/C(=O)NO)nc1)c1ccccc1 (stereo not given) and CCC(C(=O)Nc1ccc(/C=C/C(=O)NO)nc1)c1ccccc1 (stereo not given) are within 1.5-fold of each other in IC50: 28 nM for the first, 36 nM for the second.

O=C(/C=C/c1ccc(NC(=O)Cc2ccc3ccccc3c2)cn1)NO and O=C(NO)c1ccc(NC(=O)C(Cc2ccccc2)c2ccccc2)cn1 (stereo not given) are within 1.5-fold of each other in IC50: 168 nM for the first, 153 nM for the second.

CCC(C(=O)Nc1ccc(C(=O)NO)nc1)c1ccccc1 (stereo not given) and CC(C)C(C(=O)Nc1ccc(C(=O)NO)nc1)c1ccccc1 (stereo not given) are within 1.5-fold of each other in IC50: 777 nM for the first, 681 nM for the second.

tested on: U-937; assay: Induction of cell cycle arrest in human U-937 cells assessed as accumulation of cells in G1 phase at 1 to 5 uM for 48 hrs by PI staining based flow cytometric analysis; format: functional; details: dose 1-5 µM

Work on O=C(CCCCCCC(=O)Nc1ccccc1)NO [VORINOSTAT] yielded an Activity of 70%.

molecular target: Histone deacetylase 1 (Homo sapiens, UniProt Q13547); assay: not given; details: not given
Sequence (Q13547 whole entry): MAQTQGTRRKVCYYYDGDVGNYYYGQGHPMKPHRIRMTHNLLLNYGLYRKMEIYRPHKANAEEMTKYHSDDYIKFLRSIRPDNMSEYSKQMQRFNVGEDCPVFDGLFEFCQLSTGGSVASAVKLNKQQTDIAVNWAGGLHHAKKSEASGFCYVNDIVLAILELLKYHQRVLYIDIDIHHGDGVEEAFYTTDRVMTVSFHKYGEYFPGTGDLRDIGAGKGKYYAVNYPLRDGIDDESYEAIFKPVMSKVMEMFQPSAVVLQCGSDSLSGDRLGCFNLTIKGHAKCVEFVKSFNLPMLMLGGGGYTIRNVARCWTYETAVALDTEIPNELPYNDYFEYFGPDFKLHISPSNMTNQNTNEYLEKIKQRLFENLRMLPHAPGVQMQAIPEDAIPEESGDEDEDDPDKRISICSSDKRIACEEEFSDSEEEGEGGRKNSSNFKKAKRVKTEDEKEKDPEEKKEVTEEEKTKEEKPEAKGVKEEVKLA

First: O=C(Cc1ccccc1)Nc1ccc(C(=O)NO)nc1
Second: O=C(/C=C/c1ccc(NC(=O)Cc2ccccc2)cn1)NO
The IC50 of the first is 44-fold higher: 3000 nM for the first, 68 nM for the second. The second is the more potent here.

Going from O=C(Cc1cccc2ccccc12)Nc1ccc(C(=O)NO)nc1 to O=C(Cc1ccc2ccccc2c1)Nc1ccc(C(=O)NO)nc1, the IC50 rises from 2850 nM to 94000 nM (33-fold).

CC(C)C(C(=O)Nc1ccc(/C=C/C(=O)NO)nc1)c1ccccc1 (stereo not given) and CCC(C(=O)Nc1ccc(/C=C/C(=O)NO)nc1)c1ccccc1 (stereo not given) are within 1.5-fold of each other in IC50: 81 nM for the first, 77 nM for the second.

First: O=C(/C=C/c1ccc(NC(=O)Cc2ccc3ccccc3c2)cn1)NO
Second: O=C(NO)c1ccc(NC(=O)C(Cc2ccccc2)c2ccccc2)cn1 (stereo not given)
The IC50 of the first is 2.1-fold lower: 376 nM for the first, 783 nM for the second. The first is the more potent here.

CCC(C(=O)Nc1ccc(C(=O)NO)nc1)c1ccccc1 (stereo not given) and CC(C)C(C(=O)Nc1ccc(C(=O)NO)nc1)c1ccccc1 (stereo not given) are within 1.5-fold of each other in IC50: 1490 nM for the first, 1010 nM for the second.
